#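 Five compound concentrations were applied to cells in 96-well plates for 48 hours; endpoints were derived by simple linear interpolation of the resulting dose-response curve. TGI: concentration producing complete growth inhibition.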
# Assays:
# Assay in all cases: NCI anticancer screen, dose series, 48 h
# K-562 leukemia = tested on: K-562 leukemia
# U251 CNS = tested on: U251 CNS
# SF-268 CNS = tested on: SF-268 CNS
# NCI-H226 lung = tested on: NCI-H226 lung
# SNB-19 CNS = tested on: SNB-19 CNS
# 786-0 renal = tested on: 786-0 renal
# M14 melanoma = tested on: M14 melanoma
# MALME-3M melanoma = tested on: MALME-3M melanoma
# OVCAR-8 ovarian = tested on: OVCAR-8 ovarian
# HCT-116 colon = tested on: HCT-116 colon
# UACC-62 melanoma = tested on: UACC-62 melanoma
# RXF 393 renal = tested on: RXF 393 renal
# MCF7 breast = tested on: MCF7 breast
# DU-145 prostate = tested on: DU-145 prostate
# UO-31 renal = tested on: UO-31 renal
# MDA-N = tested on: MDA-N
# SN12C renal = tested on: SN12C renal
# OVCAR-5 ovarian = tested on: OVCAR-5 ovarian
# MOLT-4 leukemia = tested on: MOLT-4 leukemia
# KM12 colon = tested on: KM12 colon
# COLO 205 colon = tested on: COLO 205 colon
# CCRF-CEM leukemia = tested on: CCRF-CEM leukemia
# NCI-H522 lung = tested on: NCI-H522 lung
# MDA-MB-435 = tested on: MDA-MB-435
# SW-620 colon = tested on: SW-620 colon
# RPMI-8226 leukemia = tested on: RPMI-8226 leukemia
# T-47D breast = tested on: T-47D breast
# OVCAR-4 ovarian = tested on: OVCAR-4 ovarian
# HOP-92 NSCLC = tested on: HOP-92 NSCLC
# HOP-62 NSCLC = tested on: HOP-62 NSCLC
# SF-539 CNS = tested on: SF-539 CNS
# SK-MEL-2 melanoma = tested on: SK-MEL-2 melanoma
# HCC-2998 colon = tested on: HCC-2998 colon
# HCT-15 colon = tested on: HCT-15 colon
# NCI-H23 lung = tested on: NCI-H23 lung
# SR leukemia = tested on: SR leukemia
# ACHN renal = tested on: ACHN renal
# HT29 colon = tested on: HT29 colon
# SK-MEL-5 melanoma = tested on: SK-MEL-5 melanoma
# SK-MEL-28 melanoma = tested on: SK-MEL-28 melanoma
# A498 renal = tested on: A498 renal
# MDA-MB-231 breast = tested on: MDA-MB-231 breast
# EKVX NSCLC = tested on: EKVX NSCLC
# TK-10 renal = tested on: TK-10 renal
# A549 NSCLC = tested on: A549 NSCLC
# PC-3 prostate = tested on: PC-3 prostate
# OVCAR-3 ovarian = tested on: OVCAR-3 ovarian
# HL-60(TB) leukemia = tested on: HL-60(TB) leukemia
# HS 578T breast = tested on: HS 578T breast
# IGROV1 ovarian = tested on: IGROV1 ovarian
# NCI/ADR-RES ovarian = tested on: NCI/ADR-RES ovarian
# NCI-H460 lung = tested on: NCI-H460 lung
# CAKI-1 renal = tested on: CAKI-1 renal
# SF-295 CNS = tested on: SF-295 CNS
# LOX IMVI melanoma = tested on: LOX IMVI melanoma
# SK-OV-3 ovarian = tested on: SK-OV-3 ovarian
# SNB-75 CNS = tested on: SNB-75 CNS
# UACC-257 melanoma = tested on: UACC-257 melanoma
structure (smiles),measurement,setting,value
CCOC(=O)c1c(SCCCN2CCCCC2)n(-c2ccccc2)c(=S)n(-c2ccccc2)c1=O,TGI,K-562 leukemia,41.3 µM
same,TGI,U251 CNS,30.5 µM
same,TGI,SF-268 CNS,> 100 µM
same,TGI,NCI-H226 lung,34 µM
same,TGI,SNB-19 CNS,31.4 µM
same,TGI,786-0 renal,13.5 µM
same,TGI,M14 melanoma,31.9 µM
same,TGI,MALME-3M melanoma,29.8 µM
same,TGI,OVCAR-8 ovarian,33.6 µM
same,TGI,HCT-116 colon,24.8 µM
same,TGI,UACC-62 melanoma,25.2 µM
same,TGI,RXF 393 renal,32.2 µM
same,TGI,MCF7 breast,37.6 µM
same,TGI,DU-145 prostate,29.9 µM
same,TGI,UO-31 renal,29.1 µM
same,TGI,MDA-N,28.5 µM
same,TGI,SN12C renal,29.7 µM
same,TGI,OVCAR-5 ovarian,34.2 µM
same,TGI,MOLT-4 leukemia,35 µM
same,TGI,KM12 colon,34 µM
same,TGI,COLO 205 colon,32 µM
same,TGI,CCRF-CEM leukemia,49.3 µM
same,TGI,NCI-H522 lung,34.9 µM
same,TGI,MDA-MB-435,29.7 µM
same,TGI,SW-620 colon,35.4 µM
same,TGI,RPMI-8226 leukemia,> 100 µM
same,TGI,T-47D breast,32.6 µM
same,TGI,OVCAR-4 ovarian,31.5 µM
same,TGI,HOP-92 NSCLC,29.1 µM
same,TGI,HOP-62 NSCLC,> 100 µM
same,TGI,SF-539 CNS,27.9 µM
same,TGI,SK-MEL-2 melanoma,30.9 µM
same,TGI,HCC-2998 colon,31.1 µM
same,TGI,HCT-15 colon,33.2 µM
same,TGI,NCI-H23 lung,33.9 µM
same,TGI,SR leukemia,67 µM
same,TGI,ACHN renal,44.7 µM
same,TGI,HT29 colon,37.5 µM
same,TGI,SK-MEL-5 melanoma,30.1 µM
same,TGI,SK-MEL-28 melanoma,31.9 µM
same,TGI,A498 renal,35.6 µM
same,TGI,MDA-MB-231 breast,46.1 µM
same,TGI,EKVX NSCLC,91.8 µM
same,TGI,TK-10 renal,34.8 µM
same,TGI,A549 NSCLC,33.9 µM
same,TGI,PC-3 prostate,30 µM
same,TGI,OVCAR-3 ovarian,30.4 µM
same,TGI,HL-60(TB) leukemia,7.69 µM
same,TGI,HS 578T breast,46.5 µM
COC(=O)CNC(=O)CCSc1nnc(COc2ccc(Cl)cc2)n1-c1ccccc1,TGI,K-562 leukemia,> 100 µM
same,TGI,U251 CNS,> 100 µM
same,TGI,SF-268 CNS,48.5 µM
same,TGI,NCI-H226 lung,84.6 µM
same,TGI,SNB-19 CNS,> 100 µM
same,TGI,786-0 renal,42.6 µM
same,TGI,M14 melanoma,65.5 µM
same,TGI,IGROV1 ovarian,98.7 µM
same,TGI,NCI/ADR-RES ovarian,> 100 µM
same,TGI,MALME-3M melanoma,58.3 µM
same,TGI,OVCAR-8 ovarian,> 100 µM
same,TGI,HCT-116 colon,> 100 µM
same,TGI,UACC-62 melanoma,44 µM
same,TGI,NCI-H460 lung,> 100 µM
same,TGI,CAKI-1 renal,26.7 µM
same,TGI,RXF 393 renal,67.5 µM
same,TGI,MCF7 breast,> 100 µM
same,TGI,DU-145 prostate,51.5 µM
same,TGI,UO-31 renal,> 100 µM
same,TGI,MDA-N,37.6 µM
same,TGI,SN12C renal,45.9 µM
same,TGI,SF-295 CNS,> 100 µM
same,TGI,OVCAR-5 ovarian,> 100 µM
same,TGI,MOLT-4 leukemia,> 100 µM
same,TGI,KM12 colon,> 100 µM
same,TGI,COLO 205 colon,> 100 µM
same,TGI,CCRF-CEM leukemia,> 100 µM
same,TGI,NCI-H522 lung,33.6 µM
same,TGI,MDA-MB-435,60.4 µM
same,TGI,SW-620 colon,> 100 µM
same,TGI,T-47D breast,> 100 µM
same,TGI,OVCAR-4 ovarian,> 100 µM
same,TGI,HOP-92 NSCLC,> 100 µM
same,TGI,HOP-62 NSCLC,> 100 µM
same,TGI,SF-539 CNS,> 100 µM
same,TGI,SK-MEL-2 melanoma,48.8 µM
same,TGI,HCC-2998 colon,> 100 µM
same,TGI,HCT-15 colon,> 100 µM
same,TGI,NCI-H23 lung,> 100 µM
same,TGI,ACHN renal,> 100 µM
same,TGI,LOX IMVI melanoma,> 100 µM
same,TGI,SK-OV-3 ovarian,> 100 µM
same,TGI,HT29 colon,> 100 µM
same,TGI,SK-MEL-28 melanoma,56.9 µM
same,TGI,A498 renal,> 100 µM
same,TGI,MDA-MB-231 breast,49.1 µM
same,TGI,EKVX NSCLC,> 100 µM
same,TGI,TK-10 renal,35 µM
same,TGI,A549 NSCLC,> 100 µM
same,TGI,SNB-75 CNS,40.7 µM
same,TGI,PC-3 prostate,> 100 µM
same,TGI,OVCAR-3 ovarian,> 100 µM
same,TGI,HL-60(TB) leukemia,> 100 µM
same,TGI,UACC-257 melanoma,38.8 µM
